Literature values as cited in paper PMC8513935.
Blank lines part the entries; values can stand above or below the molecule they belong to.

What was measured:
[1] = experimental, compiled by the authors from the literature (the ESI cites the sources)
[2] = derived by the authors as gas->solvent minus gas->water (a hypothetical dry solvent; the ESI), not a two-phase measurement
[3] = log P octanol/water from commercial databases, averaged (the ESI); conditions: Octanol (wet), 25 C

SMILES: C=CCCCCCC
log K of transfer, gas to solvent ([1]; Butyronitrile, 25 C): 3.31 log10 K | log K of transfer, gas to solvent ([1]; Hexadecane, 25 C): 3.57 log10 K | log K of transfer, gas to solvent ([1]; Octan-1-ol, 25 C): 3.35 log10 K | log K of transfer, gas to solvent ([1]; Propionitrile, 25 C): 3.32 log10 K | log K of transfer, gas to solvent ([1]; Water, 25 C): -1.41 log10 K | log K of transfer, water to solvent ([2]; Butyronitrile, 25 C): 4.72 log10 K | log K of transfer, water to solvent ([2]; Hexadecane, 25 C): 4.98 log10 K | log K of transfer, water to solvent ([2]; Octan-1-ol(dry), 25 C): 4.76 log10 K | log K of transfer, water to solvent ([2]; Propionitrile, 25 C): 4.73 log10 K | log K of transfer, water to solvent [3]: 4.57 log10 K

log K of transfer, gas to solvent ([1]; Benzene, 25 C): 4.22 log10 K | log K of transfer, gas to solvent ([1]; CCl4, 25 C): 3.93 log10 K | log K of transfer, gas to solvent ([1]; Chlorobenzene, 25 C): 4.28 log10 K | log K of transfer, gas to solvent ([1]; Cyclohexane, 25 C): 3.42 log10 K | log K of transfer, gas to solvent ([1]; Hexadecane, 25 C): 3.28 log10 K | log K of transfer, gas to solvent ([1]; Hexane, 25 C): 3.43 log10 K | log K of transfer, gas to solvent ([1]; Methanol, 25 C): 3.82 log10 K | log K of transfer, gas to solvent ([1]; Octan-1-ol, 25 C): 3.68 log10 K | log K of transfer, gas to solvent ([1]; Toluene, 25 C): 4.11 log10 K | log K of transfer, gas to solvent ([1]; Water, 25 C): 2.41 log10 K | log K of transfer, water to solvent ([2]; Benzene, 25 C): 1.81 log10 K | log K of transfer, water to solvent ([2]; CCl4, 25 C): 1.52 log10 K | log K of transfer, water to solvent ([2]; Chlorobenzene, 25 C): 1.87 log10 K | log K of transfer, water to solvent ([2]; Cyclohexane, 25 C): 1.02 log10 K | log K of transfer, water to solvent ([2]; Hexadecane, 25 C): 0.876 log10 K | log K of transfer, water to solvent ([2]; Hexane, 25 C): 1.02 log10 K | log K of transfer, water to solvent ([2]; Methanol, 25 C): 1.41 log10 K | log K of transfer, water to solvent ([2]; Octan-1-ol(dry), 25 C): 1.27 log10 K | log K of transfer, water to solvent ([2]; Toluene, 25 C): 1.7 log10 K | log K of transfer, water to solvent [3]: 1.38 log10 K
SMILES: CCCCC(C)=O

log K of transfer, gas to solvent ([1]; 2-Methylpropan-1-ol, 25 C): 7.16 log10 K | log K of transfer, gas to solvent ([1]; 2-Methylpropan-2-ol, 25 C): 7.12 log10 K | log K of transfer, gas to solvent ([1]; 3-Methylbutan-1-ol, 25 C): 7.28 log10 K | log K of transfer, gas to solvent ([1]; Acetonitrile, 25 C): 7.66 log10 K | log K of transfer, gas to solvent ([1]; Benzene, 25 C): 8.38 log10 K | log K of transfer, gas to solvent ([1]; Butan-1-ol, 25 C): 7.42 log10 K | log K of transfer, gas to solvent ([1]; Butan-2-ol, 25 C): 7.26 log10 K | log K of transfer, gas to solvent ([1]; Butanone, 25 C): 8.32 log10 K | log K of transfer, gas to solvent ([1]; Butyronitrile, 25 C): 8.17 log10 K | log K of transfer, gas to solvent ([1]; CCl4, 25 C): 8.17 log10 K | log K of transfer, gas to solvent ([1]; Chlorobenzene, 25 C): 8.45 log10 K | log K of transfer, gas to solvent ([1]; Chloroform, 25 C): 8.4 log10 K | log K of transfer, gas to solvent ([1]; Cyclohexane, 25 C): 7.52 log10 K | log K of transfer, gas to solvent ([1]; Cyclohexanone, 25 C): 8.53 log10 K | log K of transfer, gas to solvent ([1]; Decan-1-ol, 25 C): 7.71 log10 K | log K of transfer, gas to solvent ([1]; Di-n-butyl ether, 25 C): 7.79 log10 K | log K of transfer, gas to solvent ([1]; Dichloromethane, 25 C): 8.62 log10 K | log K of transfer, gas to solvent ([1]; Diethyl Ether, 25 C): 7.97 log10 K | log K of transfer, gas to solvent ([1]; Ethanol, 25 C): 7.62 log10 K | log K of transfer, gas to solvent ([1]; Heptan-1-ol, 25 C): 7.58 log10 K | log K of transfer, gas to solvent ([1]; Hexadecane, 25 C): 7.56 log10 K | log K of transfer, gas to solvent ([1]; Hexan-1-ol, 25 C): 7.53 log10 K | log K of transfer, gas to solvent ([1]; Hexane, 25 C): 7.45 log10 K | log K of transfer, gas to solvent ([1]; Methanol, 25 C): 7.25 log10 K | log K of transfer, gas to solvent ([1]; Octan-1-ol, 25 C): 7.55 log10 K | log K of transfer, gas to solvent ([1]; Pentan-1-ol, 25 C): 7.46 log10 K | log K of transfer, gas to solvent ([1]; Propan-1-ol, 25 C): 7.36 log10 K | log K of transfer, gas to solvent ([1]; Propan-2-ol, 25 C): 7.36 log10 K | log K of transfer, gas to solvent ([1]; Propanone, 25 C): 8.22 log10 K | log K of transfer, gas to solvent ([1]; Propionitrile, 25 C): 8.07 log10 K | log K of transfer, gas to solvent ([1]; Tetrahydrofuran, 25 C): 8.71 log10 K | log K of transfer, gas to solvent ([1]; Toluene, 25 C): 8.3 log10 K | log K of transfer, gas to solvent ([1]; Water, 25 C): 3.03 log10 K | log K of transfer, water to solvent ([2]; 2-Methylpropan-1-ol, 25 C): 4.13 log10 K | log K of transfer, water to solvent ([2]; 2-Methylpropan-2-ol, 25 C): 4.09 log10 K | log K of transfer, water to solvent ([2]; 3-Methylbutan-1-ol, 25 C): 4.25 log10 K | log K of transfer, water to solvent ([2]; Acetone, 25 C): 5.19 log10 K | log K of transfer, water to solvent ([2]; Acetonitrile, 25 C): 4.63 log10 K | log K of transfer, water to solvent ([2]; Benzene, 25 C): 5.35 log10 K | log K of transfer, water to solvent ([2]; Butan-1-ol, 25 C): 4.39 log10 K | log K of transfer, water to solvent ([2]; Butan-2-ol, 25 C): 4.23 log10 K | log K of transfer, water to solvent ([2]; Butanone, 25 C): 5.29 log10 K | log K of transfer, water to solvent ([2]; Butyronitrile, 25 C): 5.14 log10 K | log K of transfer, water to solvent ([2]; CCl4, 25 C): 5.14 log10 K | log K of transfer, water to solvent ([2]; Chlorobenzene, 25 C): 5.42 log10 K | log K of transfer, water to solvent ([2]; Chloroform, 25 C): 5.37 log10 K | log K of transfer, water to solvent ([2]; Cyclohexane, 25 C): 4.49 log10 K | log K of transfer, water to solvent ([2]; Cyclohexanone, 25 C): 5.5 log10 K | log K of transfer, water to solvent ([2]; Decan-1-ol, 25 C): 4.68 log10 K | log K of transfer, water to solvent ([2]; Di-n-butyl ether, 25 C): 4.76 log10 K | log K of transfer, water to solvent ([2]; Dichloromethane, 25 C): 5.59 log10 K | log K of transfer, water to solvent ([2]; Diethyl Ether, 25 C): 4.94 log10 K | log K of transfer, water to solvent ([2]; Ethanol, 25 C): 4.59 log10 K | log K of transfer, water to solvent ([2]; Heptan-1-ol, 25 C): 4.55 log10 K | log K of transfer, water to solvent ([2]; Hexadecane, 25 C): 4.54 log10 K | log K of transfer, water to solvent ([2]; Hexan-1-ol, 25 C): 4.5 log10 K | log K of transfer, water to solvent ([2]; Hexane, 25 C): 4.42 log10 K | log K of transfer, water to solvent ([2]; Methanol, 25 C): 4.22 log10 K | log K of transfer, water to solvent ([2]; Octan-1-ol(dry), 25 C): 4.52 log10 K | log K of transfer, water to solvent ([2]; Pentan-1-ol, 25 C): 4.43 log10 K | log K of transfer, water to solvent ([2]; Propan-1-ol, 25 C): 4.33 log10 K | log K of transfer, water to solvent ([2]; Propan-2-ol, 25 C): 4.33 log10 K | log K of transfer, water to solvent ([2]; Propionitrile, 25 C): 5.04 log10 K | log K of transfer, water to solvent ([2]; Tetrahydrofuran, 25 C): 5.68 log10 K | log K of transfer, water to solvent ([2]; Toluene, 25 C): 5.27 log10 K | log K of transfer, water to solvent [3]: 4.45 log10 K
SMILES: c1ccc2cc3ccccc3cc2c1
